Measured values from ChEMBL document CHEMBL1132609, “Discovery of a novel class of selective non-peptide antagonists for the human neurokinin-3 receptor. 2. Identification of (S)-N-(1-phenylpropyl)-3-hydroxy-2-phenylquinoline-4-carboxamide (SB 223412)” (J Med Chem, 1999).

How the values were obtained:
[1] = target: T1, Neuromedin-K receptor (Homo sapiens, UniProt P29371); assay: Binding affinity towards cloned human Tachykinin receptor 3 (hNK-3) expressed in CHO cells using [125I][MePhe7]-NKB; type: cell-based
T1 sequence (P29371 whole entry): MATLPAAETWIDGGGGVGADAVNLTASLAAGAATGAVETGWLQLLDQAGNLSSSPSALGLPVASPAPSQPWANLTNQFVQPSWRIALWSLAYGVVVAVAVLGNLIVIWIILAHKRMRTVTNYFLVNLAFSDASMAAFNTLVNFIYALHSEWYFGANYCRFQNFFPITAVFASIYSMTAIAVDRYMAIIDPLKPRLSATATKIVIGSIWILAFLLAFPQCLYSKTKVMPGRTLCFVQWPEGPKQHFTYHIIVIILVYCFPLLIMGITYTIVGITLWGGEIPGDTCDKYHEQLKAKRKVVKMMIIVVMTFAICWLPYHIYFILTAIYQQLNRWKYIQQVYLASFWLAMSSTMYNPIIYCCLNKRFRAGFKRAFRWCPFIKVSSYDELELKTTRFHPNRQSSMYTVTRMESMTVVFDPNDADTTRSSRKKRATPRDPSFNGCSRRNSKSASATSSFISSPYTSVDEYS

[2] = target: Substance-P receptor (Homo sapiens, UniProt P25103); assay: Binding affinity towards cloned human Tachykinin receptor 1 (hNK-1) expressed in CHO cells using [3H]substance P
[3] = target: T2, Substance-K receptor (Homo sapiens, UniProt P21452); assay: Binding affinity towards cloned human Tachykinin receptor 2 (hNK-2) expressed in CHO cells using [125I]NKA
T2 sequence (P21452 whole entry): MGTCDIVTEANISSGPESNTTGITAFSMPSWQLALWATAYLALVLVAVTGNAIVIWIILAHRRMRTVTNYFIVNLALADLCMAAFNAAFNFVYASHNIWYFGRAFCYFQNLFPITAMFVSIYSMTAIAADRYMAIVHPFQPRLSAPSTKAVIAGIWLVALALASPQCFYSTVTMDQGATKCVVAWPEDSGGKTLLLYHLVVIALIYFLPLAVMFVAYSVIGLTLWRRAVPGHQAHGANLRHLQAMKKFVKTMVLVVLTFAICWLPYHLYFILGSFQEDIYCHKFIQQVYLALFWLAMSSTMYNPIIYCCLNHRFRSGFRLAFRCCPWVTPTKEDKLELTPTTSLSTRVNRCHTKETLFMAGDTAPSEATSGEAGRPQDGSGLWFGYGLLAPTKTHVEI

[4] = target: Neuromedin-K receptor (Oryctolagus cuniculus); assay: In vitro functional activity as antagonism of senktide-induced contractions in RISM (Rabbit Isolated Iris Sphincter Muscle) containing NK-3 receptor

Chain of Substance-P receptor (P25103 whole entry): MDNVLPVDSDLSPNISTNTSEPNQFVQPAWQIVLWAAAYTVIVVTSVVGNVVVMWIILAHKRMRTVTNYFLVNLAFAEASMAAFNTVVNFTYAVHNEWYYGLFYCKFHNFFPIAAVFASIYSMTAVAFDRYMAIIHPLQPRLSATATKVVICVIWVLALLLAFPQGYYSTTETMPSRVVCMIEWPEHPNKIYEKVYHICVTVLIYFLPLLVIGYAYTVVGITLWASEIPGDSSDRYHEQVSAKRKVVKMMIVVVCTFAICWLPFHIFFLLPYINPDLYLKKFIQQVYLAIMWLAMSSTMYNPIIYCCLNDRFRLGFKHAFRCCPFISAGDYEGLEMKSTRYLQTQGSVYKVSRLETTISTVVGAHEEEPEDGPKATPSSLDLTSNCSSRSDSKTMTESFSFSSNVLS

Row | Compound | Ki [1] | also measured
1 | CC[C@@H](NC(=O)c1c(F)c(-c2ccccc2)nc2ccccc12)c1ccccc1 | 30.3 nM | 
2 | O=C(N[C@H](C(=O)O)c1ccccc1)c1cc(-c2ccccc2)nc2ccccc12 | 1650 nM | 
3 | CCC(NC(=O)c1c(-c2ccccc2)c(-c2ccccc2)nc2ccccc12)c1ccccc1 (stereo not drawn) | 45.3 nM | 
4 | CC[C@@H](NC(=O)c1c(OCC(=O)O)c(-c2ccccc2)nc2ccccc12)c1ccccc1 |  | Ki [2]: > 100000 nM; Ki [3]: 214 nM
5 | CC(C)(NC(=O)c1cc(-c2ccccc2)nc2ccccc12)c1ccccc1 | 295 nM | 
6 | CCC(NC(=O)c1c(OCCN2CCCC2)c(-c2ccccc2)nc2ccccc12)c1ccccc1 (single isomer, unassigned) | 6.8 nM | 
7 | CC[C@@H](NC(=O)c1c(N)c(-c2ccccc2)nc2ccccc12)c1ccccc1 |  | Ki [2]: > 100000 nM; Ki [3]: 111 nM
8 | CC[C@@H](NC(=O)c1c(C)c(-c2ccccc2)nc2ccccc12)c1ccccc1 |  | Ki [2]: > 100000 nM; Ki [3]: 277 nM
9 | CC(=O)C(NC(=O)c1cc(-c2ccccc2)nc2ccccc12)c1ccccc1 (stereo not drawn) | 27.4 nM | 
10 | CC[C@@H](NC(=O)c1c(CN(C)C)c(-c2ccccc2)nc2ccccc12)c1ccccc1 | 2.2 nM | Ki [2]: > 100000 nM; Ki [3]: 172 nM
11 | O=C(NC(CO)c1ccccc1)c1cc(-c2ccccc2)nc2ccccc12 (stereo not drawn) | 207 nM | 
12 | CC[C@@H](NC(=O)c1c(Cl)c(-c2ccccc2)nc2ccccc12)c1ccccc1 | 29.9 nM | 
13 | O=C(NC(Cc1ccccc1)c1ccccc1)c1cc(-c2ccccc2)nc2ccccc12 (stereo not drawn) | 3510 nM | 
14 | NC(=O)C(NC(=O)c1cc(-c2ccccc2)nc2ccccc12)c1ccccc1 (stereo not drawn) | 983 nM | 
15 | CCC(NC(=O)c1c(NC(C)=O)c(-c2ccccc2)nc2ccccc12)c1ccccc1 (single isomer, unassigned) | 15.9 nM | 
16 | CCc1c(-c2ccccc2)nc2ccccc2c1C(=O)N[C@H](CC)c1ccccc1 |  | Ki [2]: > 100000 nM; Ki [3]: 316 nM
17 | CC[C@@H](NC(=O)c1c(OCC(=O)N(C)C)c(-c2ccccc2)nc2ccccc12)c1ccccc1 | 2.4 nM | 

Row | Compound | Ki [1] | also measured
18 | CCC(NC(=O)c1c(OC)c(-c2ccccc2)nc2ccccc12)c1ccccc1 (stereo not drawn) | 5.8 nM | 
19 | CCC(NC(=O)c1c(Br)c(-c2ccccc2)nc2ccccc12)c1ccccc1 (single isomer, unassigned) | 37.2 nM | 
20 | O=C(NC1(c2ccccc2)CCCC1)c1cc(-c2ccccc2)nc2ccccc12 | 129 nM | 
21 | CCOC(=O)COc1c(-c2ccccc2)nc2ccccc2c1C(=O)NC(CC)c1ccccc1 (single isomer, unassigned) | 2 nM | 
22 | CCCc1c(-c2ccccc2)nc2ccccc2c1C(=O)NC(CC)c1ccccc1 (stereo not drawn) | 13.7 nM | 
23 | O=C(NC(c1ccccc1)C(F)(F)F)c1cc(-c2ccccc2)nc2ccccc12 (stereo not drawn) | 454 nM | 
24 | CCCCCCc1c(-c2ccccc2)nc2ccccc2c1C(=O)NC(CC)c1ccccc1 (stereo not drawn) | 55.4 nM | 
25 | CN(C)C(=O)C(NC(=O)c1cc(-c2ccccc2)nc2ccccc12)c1ccccc1 (stereo not drawn) | 488 nM | 
26 | CCCC(NC(=O)c1cc(-c2ccccc2)nc2ccccc12)c1ccccc1 (stereo not drawn) | 47.2 nM | 
27 | CCC(NC(=O)c1c(OCC(N)=O)c(-c2ccccc2)nc2ccccc12)c1ccccc1 (single isomer, unassigned) | 6.3 nM | 
28 | CC[C@@H](NC(=O)c1cc(-c2ccccc2)nc2ccccc12)c1ccccc1 |  | Ki [2]: > 100000 nM; Ki [3]: 237 nM
29 | CCCCCCCC(NC(=O)c1cc(-c2ccccc2)nc2ccccc12)c1ccccc1 (stereo not drawn) | 4870 nM | 
30 | O=C(NC(CCO)c1ccccc1)c1cc(-c2ccccc2)nc2ccccc12 (stereo not drawn) | 382 nM | 
31 | CC[C@@H](NC(=O)c1c(OCCO)c(-c2ccccc2)nc2ccccc12)c1ccccc1 | 1.5 nM | Ki [2]: > 100000 nM; Ki [3]: 82 nM
32 | CN(C)C[C@@H](NC(=O)c1cc(-c2ccccc2)nc2ccccc12)c1ccccc1 | 1070 nM | 
33 | CCC(NC(=O)c1c(OC)c(-c2ccccc2)nc2ccccc12)c1ccccc1 (single isomer, unassigned) [listing 2 of 2 here] |  | Kb [4]: 1.8 nM
34 | CCCCC(NC(=O)c1cc(-c2ccccc2)nc2ccccc12)c1ccccc1 (stereo not drawn) | 146 nM | 

Continued, in another order:

Row | Ki [1] | Compound | also measured
35 | 10.7 nM | CCC(NC(=O)c1c(NC(=O)CN(C)C)c(-c2ccccc2)nc2ccccc12)c1ccccc1 (single isomer, unassigned) | 
36 | 15.2 nM | CCCCc1c(-c2ccccc2)nc2ccccc2c1C(=O)NC(CC)c1ccccc1 (stereo not drawn) | 
37 | 4.7 nM | CCC(NC(=O)c1c(OCCN)c(-c2ccccc2)nc2ccccc12)c1ccccc1 (single isomer, unassigned) | 
38 | 426 nM | CNC(=O)C(NC(=O)c1cc(-c2ccccc2)nc2ccccc12)c1ccccc1 (stereo not drawn) | 
39 | 1.8 nM | CCC(NC(=O)c1c(OC)c(-c2ccccc2)nc2ccccc12)c1ccccc1 (single isomer, unassigned) [listing 1 of 2 here] | Ki [2]: > 100000 nM; Ki [3]: 329 nM
40 | 973 nM | COC(=O)CC(NC(=O)c1cc(-c2ccccc2)nc2ccccc12)c1ccccc1 (stereo not drawn) | 
41 | 5.7 nM | CCC(NC(=O)c1c(OCCN(C)C)c(-c2ccccc2)nc2ccccc12)c1ccccc1 (single isomer, unassigned) | 
42 | 134 nM | O=C(NC(c1ccccc1)c1ccccc1)c1cc(-c2ccccc2)nc2ccccc12 | 
43 | 314 nM | COCC(NC(=O)c1cc(-c2ccccc2)nc2ccccc12)c1ccccc1 (stereo not drawn) | 
44 | 74.3 nM | CC(C)C(NC(=O)c1cc(-c2ccccc2)nc2ccccc12)c1ccccc1 (stereo not drawn) | 
45 | 264 nM | CC(NC(=O)c1cc(-c2ccccc2)nc2ccccc12)c1ccccc1 (stereo not drawn) | 
46 | 1140 nM | NC[C@@H](NC(=O)c1cc(-c2ccccc2)nc2ccccc12)c1ccccc1 | 
47 | 8.6 nM | CCC(NC(=O)c1c(OCCCN(C)C)c(-c2ccccc2)nc2ccccc12)c1ccccc1 (single isomer, unassigned) | 
